Experimental data taken from ChEMBL document CHEMBL1132400, “A combinatorial approach to the identification of dipeptide aldehyde inhibitors of beta-amyloid production” (J Med Chem, 1999).

Assays:
Assay type in all cases: functional, cell-based
N9 [1] = assay: Compound was tested for the inhibition of total beta-Amyloid Production in N9 cell line expressing beta-APP (wascreated by transfecting the human cDNA encoding beta-APP 695) by using enzyme-linked immunosorbent assay
N9 [2] = assay: Compound was tested for the inhibition of 1-42 beta-Amyloid Production in N9 cell line expressing beta-APP (wascreated by transfecting the human cDNA encoding beta-APP 695) by using immunoprecipitation assay
N9 [3] = assay: Compound was tested for the inhibition of 1-40 beta-Amyloid Production in N9 cell line expressing beta-APP (wascreated by transfecting the human cDNA encoding beta-APP 695) by using immunoprecipitation assay
N9 [4] = assay: Compound was tested for the inhibition of total beta-Amyloid Production in N9 cell line expressing beta-APP (wascreated by transfecting the human cDNA encoding beta-APP 695) by using immunoprecipitation assay
N9 [5] = assay: Compound was tested for the inhibition of beta-Amyloid Production in N9 cell line expressing beta-APP; conditions: Homo sapiens

Compound: CCC(C)[C@H](NC(=O)/C=C/c1cc(OC)cc(OC)c1)C(=O)N[C@H](C=O)CC(C)C (stereo not given in full)
- IC50 (N9 [1]): 10 µM
- IC50 (N9 [2]): > 50 µM
- IC50 (N9 [3]): 22 µM
- IC50 (N9 [4]): 15 µM
- IC50 (N9 [5]): 9.6 µM
